Literature values in patent publication US11759447B1, “Compound and method for treating diseases and disorders” (RCR BIOPHARMA, priority 2019, dated 2023).

How the values were obtained:
[1] = oral forms such as CBD treats
[2] = test system: dogs; conditions: high levels of hemp-derived CBD (<0.3% THC)
[3] = test system: dogs; conditions: IV
[4] = test system: dogs

Q: What does the source list for C=C(C)[C@@H]1CCC(C)=C[C@H]1c1c(O)cc(CCCCC)cc1O [CBD, Cannabidiol]?
A: fraction of orally administered CBD ultimately absorbed, on average [1]: 5-10%; dogs with ataxia [2]: 2 of the 10

Q: Which “dose causing Static Ataxia” value [3] does the source give for CCCCCc1cc(O)c2c(c1)OC(C)(C)[C@@H]1CCC(C)=C[C@@H]21 [THC, Δ-9-tetrahydrocannabinol] here?
A: The value was greater than 0.5 mg/kg.

Q: Which “peak vertical force or vertical impulse versus placebo” value [4] does the source give for COc1cccc(C2(O)CCCCC2CN(C)C)c1 (stereo not shown) [tramadol, Tramadol] here?
A: The value was “no improvement”.
